Measured values from PubChem BioAssay AID1845202 (Molecular Pharmacology Branch, DTP, NCI, 2023).

System: DMS 114 tumor spheroids, viability % test/control
Assay: Anticancer human tumor DMS 114 cell line growth inhibition;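 further: spheroids exposed to compounds for 7 days before read-out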;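 on viability, T/C: luminescence used as a proxy for viable cells; 100% = DMSO vehicle control viability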
Conditions: spheroids with HUVEC and MSC; for IC50: curve of first compound; for viability, T/C: stronger effect = lower value
In short: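 Single agents and combinations were tested on spheroids built from tumor cells plus HUVEC and hMSC, at half-log dilutions starting at or near clinical Cmax, else 10 microM; final DMSO 0.25% (v/v).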

[1] = second compound 30 pM, first compound 0.00949 µM
[2] = second compound 30 pM, first compound 0.03 µM
[3] = second compound 30 pM, first compound 0.0949 µM
[4] = second compound 30 pM, first compound 0.3 µM
[5] = second compound 30 pM, first compound 0.949 µM
[6] = second compound 30 pM, first compound 3 µM
[7] = second compound 94.9 pM, first compound 0.00949 µM
[8] = second compound 94.9 pM, first compound 0.03 µM
[9] = second compound 94.9 pM, first compound 0.0949 µM
[10] = second compound 94.9 pM, first compound 0.3 µM
[11] = second compound 94.9 pM, first compound 0.949 µM
[12] = second compound 94.9 pM, first compound 3 µM
[13] = second compound 0.0003 µM, first compound 0.00949 µM
[14] = second compound 0.0003 µM, first compound 0.03 µM
[15] = second compound 0.0003 µM, first compound 0.0949 µM
[16] = second compound 0.0003 µM, first compound 0.3 µM
[17] = second compound 0.0003 µM, first compound 0.949 µM
[18] = second compound 0.0003 µM, first compound 3 µM
[19] = second compound 0.000949 µM, first compound 0.00949 µM
[20] = second compound 0.000949 µM, first compound 0.03 µM
[21] = second compound 0.000949 µM, first compound 0.0949 µM
[22] = second compound 0.000949 µM, first compound 0.3 µM
[23] = second compound 0.000949 µM, first compound 0.949 µM
[24] = second compound 0.000949 µM, first compound 3 µM
[25] = second compound 0.003 µM, first compound 0.00949 µM
[26] = second compound 0.003 µM, first compound 0.03 µM
[27] = second compound 0.003 µM, first compound 0.0949 µM
[28] = second compound 0.003 µM, first compound 0.3 µM
[29] = second compound 0.003 µM, first compound 0.949 µM
[30] = second compound 0.003 µM, first compound 3 µM

Structure (SMILES)	IC50 (second compound 30 pM) [nM]	IC50 (second compound 94.9 pM) [nM]	IC50 (second compound 0.0003 µM) [nM]	IC50 (second compound 0.000949 µM) [nM]	IC50 (second compound 0.003 µM) [nM]	viability, T/C [3] [%]	viability, T/C [4] [%]	viability, T/C [5] [%]	viability, T/C [6] [%]	viability, T/C [9] [%]	viability, T/C [10] [%]	viability, T/C [11] [%]	viability, T/C [12] [%]	viability, T/C [15] [%]	viability, T/C [16] [%]	viability, T/C [17] [%]	viability, T/C [18] [%]	viability, T/C [21] [%]	viability, T/C [22] [%]	viability, T/C [23] [%]	other results
CNCc1ccc(-c2cc(-c3nc(-c4ccc(S(=O)(=O)C(C)C)cc4)cnc3N)on2)cc1 + COc1cc2c(cc1O)CCNC21CSC2c3c(OC(C)=O)c(C)c4c(c3C(COC1=O)N1C(O)C3Cc5cc(C)c(OC)c(O)c5C(C21)N3C)OCO4	115	65	< 9.49	< 9.49	< 9.49	53.1	20.8	2.84	0.19	41.3	12.2	2.28	0.17	17.8	11.7	1.89	0.25	3.57	3.71	0.67	viability, T/C [1]: 96.4%; viability, T/C [2]: 94.3%; viability, T/C [7]: 93.9%; viability, T/C [8]: 70.5%; viability, T/C [13]: 38.6%; viability, T/C [14]: 28.3%; viability, T/C [19]: 4.46%; viability, T/C [20]: 4.77%; viability, T/C [24]: 0.15%; viability, T/C [25]: 0.28%; viability, T/C [26]: 0.28%; viability, T/C [27]: 0.31%; viability, T/C [28]: 0.26%; viability, T/C [29]: 0.23%; viability, T/C [30]: 0.25%
Cc1sc2c(c1C)C(c1ccc(Cl)cc1)=NC(CC(=O)Nc1ccc(O)cc1)c1nnc(C)n1-2 (stereo not given) + COc1cc2c(cc1O)CCNC21CSC2c3c(OC(C)=O)c(C)c4c(c3C(COC1=O)N1C(O)C3Cc5cc(C)c(OC)c(O)c5C(C21)N3C)OCO4	165	97.3	< 9.49	< 9.49	< 9.49	65.1	33.3	5.12	3.29	55.4	12.1	5.83	1.91	13.1	5.79	1.67	0.76	1.35	0.73	0.39	viability, T/C [1]: 107%; viability, T/C [2]: 102%; viability, T/C [7]: 101%; viability, T/C [8]: 80.1%; viability, T/C [13]: 41.7%; viability, T/C [14]: 27.1%; viability, T/C [19]: 3.12%; viability, T/C [20]: 1.58%; viability, T/C [24]: 0.19%; viability, T/C [25]: 0.2%; viability, T/C [26]: 0.19%; viability, T/C [27]: 0.17%; viability, T/C [28]: 0.13%; viability, T/C [29]: 0.16%; viability, T/C [30]: 0.3%
Cn1ncnc1[C@H]1c2n[nH]c(=O)c3cc(F)cc(c23)N[C@@H]1c1ccc(F)cc1 + COc1cc2c(cc1O)CCNC21CSC2c3c(OC(C)=O)c(C)c4c(c3C(COC1=O)N1C(O)C3Cc5cc(C)c(OC)c(O)c5C(C21)N3C)OCO4	428	104	< 9.49	< 9.49	< 9.49	78.4	59.6	29.9	10.4	54.6	33.3	16.5	7.38	17.8	16.6	10.7	5.92	3.4	2.16	1.41	viability, T/C [1]: 91.6%; viability, T/C [2]: 91%; viability, T/C [7]: 79.2%; viability, T/C [8]: 63.3%; viability, T/C [13]: 21.8%; viability, T/C [14]: 20.3%; viability, T/C [19]: 2.67%; viability, T/C [20]: 3.65%; viability, T/C [24]: 0.78%; viability, T/C [25]: 0.32%; viability, T/C [26]: 0.33%; viability, T/C [27]: 0.3%; viability, T/C [28]: 0.32%; viability, T/C [29]: 0.28%; viability, T/C [30]: 0.49%
O=C(c1cc(Cc2n[nH]c(=O)c3ccccc23)ccc1F)N1CCN(C(=O)C2CC2)CC1 + COc1cc2c(cc1O)CCNC21CSC2c3c(OC(C)=O)c(C)c4c(c3C(COC1=O)N1C(O)C3Cc5cc(C)c(OC)c(O)c5C(C21)N3C)OCO4	5540	3670	< 94.9	< 94.9	< 94.9	106	103	97.1	83.8	92.3	94.6	88.1	57.2	29.5	21.9	23.2	14.8	3.19	2.4	2.21	viability, T/C (second compound 30 pM, first compound 9.49 µM): 20.2%; viability, T/C (second compound 30 pM, first compound 30 µM): 17.4%; viability, T/C (second compound 94.9 pM, first compound 9.49 µM): 17.3%; viability, T/C (second compound 94.9 pM, first compound 30 µM): 13.7%; viability, T/C (second compound 0.0003 µM, first compound 9.49 µM): 7.77%; viability, T/C (second compound 0.0003 µM, first compound 30 µM): 7.92%; viability, T/C [24]: 2.86%; viability, T/C (second compound 0.000949 µM, first compound 9.49 µM): 1.24%; viability, T/C (second compound 0.000949 µM, first compound 30 µM): 0.5%; viability, T/C [27]: 0.24%; viability, T/C [28]: 0.22%; viability, T/C [29]: 0.19%; viability, T/C [30]: 0.2%; viability, T/C (second compound 0.003 µM, first compound 9.49 µM): 0.19%; viability, T/C (second compound 0.003 µM, first compound 30 µM): 0.4%
